In patent US6908945B2, “Ester compound and its use” (Sumitomo Chemical Company, Limited, priority 2002, dated 2005):

How the values were obtained:
[1] = tested on: female common mosquitoes (Culex pipiens pallens); assay: Knock-down test, oil solution sprayed into cubic chamber, common mosquitoes; type: in vivo; details: 0.7 ml of 0.00625% oil solution sprayed, 70 cm cubic chamber, ten female Culex pipiens pallens, counted for 10 minutes
Excerpt: A solution of 0.00625 part of the present compound (1R,cis-E) dissolved with 10 parts of dichloromethane was mixed with 89.99375 parts of deodorized kerosene to give a […] oil solution.
(§1) Ten female common mosquitoes (Culex pipiens pallens) were left in a cubic chamber (70 cm at side). Seven-tenths (0.7) ml of the 0.00625% oil solution of the present compound prepared above was sprayed with a spray gun at a pressure of 8.8×10^4 Pa from a small window on the side of the chamber. Then, the number of the knocked-down insects was counted at times for 10 minutes. The time for knocking down half of the tested insects was 1.3 minute.
The same test except that 3-phenoxybenzyl (1R,cis)-3-((E)-2-cyano-1-propenyl)-2,2-dimethylcyclopropanecarboxylate, which is a compound described in Indian Patent No. 152306, was used in place of the present compound was performed for reference. The KT50 value was 8.0 minutes.

[2] = tested on: Adult houseflies; assay: Knock-down test, oil solution sprayed into cubic chamber, adult houseflies; type: in vivo; details: 70 cm cubic chamber, 5 male and 5 female adult houseflies, counted for 10 minutes; for time for knocking down half of the tested insects (KT50): 0.7 ml of 0.00625% oil solution sprayed, two repetitions
Excerpt: A solution of 0.025 part of the present compound prepared by the production example mentioned above dissolved with 10 parts of dichloromethane was mixed with 89.9975 parts of deodorized kerosene to give a […] oil solution.
as §1, with “Adult houseflies (5 males and 5 females)” for “Ten female common mosquitoes (Culex pipiens pallens)”, “0.025%” for “0.00625%”, “1.0” for “1.3”
A solution of 0.00625 part of the present compound prepared by the production example mentioned above dissolved with 10 parts of dichloromethane was mixed with 89.99375 parts of deodorized kerosene to give a 0.00625% oil solution.
Adult houseflies (5 males and 5 females) were left in a cubic chamber (70 cm at side). Seven-tenths (0.7) ml of the 0.00625% oil solution of the present compound prepared above was sprayed with a spray gun at a pressure of 8.8×10^4 Pa from a small window on the side of the chamber. Then, the number of the knocked-down insects was counted at times for 10 minutes (two repetitions). The time for knocking down half of the tested insects (KT50) was observed. The KT50 value was 1.1 minutes.
The same test except that 4-methoxymethy-2,3,5,6-tetrafluorobenzyl (1R,trans)-3-(2-fluoro-1-propenyl)-2,2-dimethylcyclopropanecarboxylate, which is a compound of Example 12 of WO 99/32426, was used in place of the present compound was performed for reference. The KT50 value was 5.0 minutes.

Compound	time for knocking down half of the tested insects (KT50) [1]	time for knocking down half of the tested insects (KT50) [2]	time for knocking down half of the tested insects ([2]; 0.7 ml of 0.025% oil solution sprayed)
C/C(C#N)=C\[C@H]1[C@@H](C(=O)OCc2cccc(Oc3ccccc3)c2)C1(C)C (relative stereo) [3-phenoxybenzyl (1R,cis)-3-((E)-2-cyano-1-propenyl)-2,2-dimethylcyclopropanecarboxylate, reference compound]	8.0 min		
COCc1c(F)c(F)c(COC(=O)[C@@H]2[C@H](C=C(C)F)C2(C)C)c(F)c1F (relative stereo) [Example 12 of WO 99/32426, 4-methoxymethy-2,3,5,6-tetrafluorobenzyl (1R,trans)-3-(2-fluoro-1-propenyl)-2,2-dimethylcyclopropanecarboxylate, reference compound]		5.0 min	
COCc1c(F)c(F)c(COC(=O)C2C(C=C(C)C#N)C2(C)C)c(F)c1F [present compound (1R,cis-E)]	1.3 min		
COCc1c(F)c(F)c(COC(=O)C2C(C=C(C)C#N)C2(C)C)c(F)c1F (centres unmarked) [present compound, 4-methoxymethy-2,3,5,6-tetrafluorobenzyl 3-(2-cyano-1-propenyl)-2,2-dimethylcyclopropanecarboxylate]		1.1 min	1.0 min
